Test systems include HOP-18; KM-20L2; DMS-273; LXFL 529; XF498; DLD-1; DMS-114; SNB-78; RXF 631.
Common to all, as to experiment: growth of human tumour cells (NCI), 48 h

SMILES strings stand for the structures.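 Five concentrations, 48 hours, 96-well plates. Here, GI50 denotes the concentration required for 50% inhibition of growth.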 The source made the active and inactive calls. Rule as the data show it: active = GI50 up to about 1.1 µM and inactive = higher.

As to `Cc1ccc(C)c(NC(=O)c2cc(-c3ccc([N+](=O)[O-])cc3)nc(N)n2)c1`, the GI50 in the assay with HOP-18, in the assay on KM-20L2, in the assay on DMS-273, in the assay with LXFL 529, in the assay on XF498 and in the assay with DLD-1 was > 100 µM (inactive) in each case. In addition, the GI50 in the assay with DMS-114 is > 100 µM (inactive).

As to `[N-]=[N+]=CC(=O)C1(C(=O)C=[N+]=[N-])CC1`, the GI50 in the assay with HOP-18, in the assay on KM-20L2, in the assay on DMS-273, with LXFL 529, in the assay with SNB-78 and in the assay on XF498 was > 100 µM (inactive) in each case. The GI50 in the assay on DMS-114 is > 100 µM (inactive).

On to `C[C@]12CCC(=O)C=C1CC[C@@H]1[C@@H]2CC[C@]2(C)C(=O)NC(=O)C[C@@H]12`, for which the GI50 in the assay with HOP-18, in the assay on KM-20L2, in the assay on DMS-273, with LXFL 529, in the assay on SNB-78 and in the assay with XF498 was > 100 µM (inactive) each time. In addition, the GI50 with DLD-1, in the assay on RXF 631 and in the assay with DMS-114 was > 100 µM (inactive) throughout.

`CCOC(=O)C(=Cc1ccc(C(=O)OC)cc1)C(=O)OCC`: the GI50 in the assay on HOP-18 was 3.49 µM (inactive); in the assay on KM-20L2, 0.845 µM (active); with DMS-273, 1.71 µM (inactive); in the assay on LXFL 529 it was 1.75 µM (inactive); in the assay with DLD-1, 2.12 µM (inactive); in the assay with DMS-114 it was 1.66 µM (inactive).

As for `CCOC(=O)C1S/C(=N\c2ccc(Cl)cc2)N=C1C` (configuration not stated), the GI50 is 23.3 µM (inactive) with HOP-18; 19.2 µM (inactive) in the assay with KM-20L2; > 10 µM (inactive) in the assay with LXFL 529; 29.2 µM (inactive) in the assay with SNB-78; 20 µM (inactive) with XF498; 14.1 µM (inactive) with DLD-1. Also, the GI50 in the assay with DMS-114 was 23.8 µM (inactive).

As for `COC1/C=C/OC2(C)Oc3c(C)c(O)c4c(c3C2=O)C(=O)C=C(NC(=O)/C(C)=C\C=C\C(C)C(OC=O)C(C)C(O)C(C)C(OC(C)=O)C1C)C4=O` (configuration not stated), the GI50 with HOP-18 was 5.36 µM (inactive); with KM-20L2, 18.2 µM (inactive); in the assay with DMS-273, 16.9 µM (inactive); in the assay with LXFL 529, 6.5 µM (inactive); in the assay with SNB-78, 20.1 µM (inactive); in the assay on XF498, 4 µM (inactive). Moreover, the values for the GI50 in the assay with DLD-1, with RXF 631 and in the assay on DMS-114 were 9.89 µM (inactive), 15.7 µM (inactive) and 16.8 µM (inactive), respectively.

For `CC(C)(C)c1cc(Oc2ccc(C#N)c(C#N)c2)cc(C(C)(C)C)c1`, the GI50 was > 100 µM (inactive) in the assay on HOP-18; > 100 µM (inactive) in the assay on KM-20L2; 14.1 µM (inactive) in the assay with DMS-273; > 100 µM (inactive) in the assay with LXFL 529; > 100 µM (inactive) in the assay with SNB-78; > 100 µM (inactive) in the assay on XF498. Also, the results for the GI50 in the assay on DLD-1, in the assay on RXF 631 and in the assay with DMS-114 were > 100 µM (inactive), 31 µM (inactive) and 42.1 µM (inactive), respectively.

In the case of `COc1cccc(-c2cc(C(=O)Nc3ccc(Cl)cc3)nc(N)n2)c1`, the GI50 with HOP-18 is > 100 µM (inactive); with KM-20L2, 61.4 µM (inactive); with DMS-273, 85.7 µM (inactive); in the assay with LXFL 529 it was 52.7 µM (inactive); in the assay with SNB-78, > 100 µM (inactive); in the assay with XF498 it was 93.8 µM (inactive). The GI50 in the assay with DLD-1 was 69.5 µM (inactive); with DMS-114, 30.6 µM (inactive).

Turning to `Nn1c(S)nnc1NNC(=O)C(=O)Nc1cc(Cl)c(Cl)cc1Cl`, the GI50 in the assay with HOP-18 is 71.1 µM (inactive); with KM-20L2, > 100 µM (inactive); in the assay with LXFL 529 it was > 100 µM (inactive); in the assay with SNB-78, > 100 µM (inactive); in the assay on XF498, 90.4 µM (inactive); in the assay with DLD-1, > 100 µM (inactive). Besides, the GI50 in the assay on DMS-114 was > 100 µM (inactive).

For the compound `CC(C)C1CO[C@]2(C)CCC(=O)N12` (some centres not stated), the GI50 in the assay on HOP-18, with KM-20L2, in the assay on LXFL 529, in the assay with XF498, in the assay with DLD-1 and with RXF 631 was > 100 µM (inactive) each time. Further, the GI50 in the assay on DMS-114 was > 100 µM (inactive).

Take `C/C(=N\NC(N)=O)C(CN1CCCCC1)C(c1ccccc1)c1c(O)c2ccccc2oc1=O` (configuration not stated): the GI50 with HOP-18, in the assay on KM-20L2, with DMS-273, in the assay with LXFL 529, in the assay on SNB-78 and with DLD-1 was > 100 µM (inactive) in each case. The GI50 in the assay with RXF 631 and in the assay on DMS-114 was > 100 µM (inactive) each time.

`CCNC(=O)C#CC(=O)NCC`: the GI50 with HOP-18 was > 100 µM (inactive); with KM-20L2, > 100 µM (inactive); with DMS-273, 17.8 µM (inactive); in the assay with LXFL 529, > 93.8 µM (inactive); in the assay with SNB-78, > 10 µM (inactive); with XF498, > 100 µM (inactive). Also, the GI50 in the assay with DLD-1 is > 46.1 µM (inactive); in the assay on RXF 631 it was > 100 µM (inactive); with DMS-114, > 72.3 µM (inactive).

As for `CN(C)CCCSc1c2ccccc2nc2cc(NCC(=O)Nc3ccccc3-c3ccccc3NC(=O)CNc3ccc4c(SCCCN(C)C)c5ccccc5nc4c3)ccc12`, the GI50 is > 100 µM (inactive) with HOP-18; > 100 µM (inactive) in the assay on KM-20L2; > 100 µM (inactive) in the assay with DMS-273; > 100 µM (inactive) with LXFL 529; > 100 µM (inactive) in the assay on SNB-78; 71.8 µM (inactive) with XF498. The GI50 in the assay on DLD-1 and with DMS-114 was > 100 µM (inactive) throughout.

For `COc1ccc2c(CCNS(=O)(=O)c3ccccc3)c(C(C)=O)[nH]c2c1[N+](=O)[O-]`, the GI50 in the assay on KM-20L2 is > 100 µM (inactive); in the assay with DMS-273, > 100 µM (inactive); in the assay on LXFL 529, > 100 µM (inactive); in the assay with SNB-78 it was 48.5 µM (inactive); in the assay on RXF 631, 41.4 µM (inactive).

Take `Cn1c(=O)c2[nH]cnc2n(CC(N)=O)c1=O`: the GI50 in the assay on DMS-273, with LXFL 529, in the assay on SNB-78, in the assay on XF498, in the assay with DLD-1 and with DMS-114 was > 100 µM (inactive) each time.

Take `Cc1cc(=O)oc2cc(OCc3nc4ccccc4c(=O)n3-c3ccccc3)ccc12`: the GI50 in the assay with HOP-18, in the assay with KM-20L2, in the assay on DMS-273, with LXFL 529, in the assay with DLD-1 and in the assay on RXF 631 was > 100 µM (inactive) in each case. In the assay on DMS-114, the GI50 is > 100 µM (inactive).

On to `N/N=C(\CC1OC(=O)c2ccccc21)c1ccco1` (configuration not stated), for which the GI50 with HOP-18 is < 0.01 µM (active); in the assay on KM-20L2 it was > 100 µM (inactive); with DMS-273 it was > 100 µM (inactive); in the assay on LXFL 529 it was > 100 µM (inactive); in the assay on DLD-1, > 100 µM (inactive); with DMS-114, > 100 µM (inactive).

With `O=C1Nc2cc(Cl)ccc2N=CC1NC(=O)C(c1ccccc1)c1ccccc1Cl` (configuration not stated), the GI50 is 27.5 µM (inactive) in the assay with HOP-18; > 100 µM (inactive) in the assay with KM-20L2; > 100 µM (inactive) in the assay with DMS-273; > 100 µM (inactive) in the assay on LXFL 529; > 100 µM (inactive) with SNB-78; > 100 µM (inactive) in the assay on DLD-1. For the same compound, the GI50 in the assay on RXF 631 and in the assay on DMS-114 was > 100 µM (inactive) throughout.

Turning to `O=c1n(CC2CO2)c(=O)n(CC2CO2)c(=O)n1CC1CO1` (configuration not stated) [TEROXIRONE], the GI50 was 91.8 µM (inactive) in the assay on HOP-18; 68.5 µM (inactive) in the assay on KM-20L2; 1.16 µM (inactive) in the assay with DMS-273; 110 µM (inactive) with SNB-78; 62.1 µM (inactive) in the assay with DLD-1; 11.4 µM (inactive) in the assay on DMS-114.

Take `Clc1ccc(-n2nnc(C3=NCCCN3)c2-c2ccccc2)cc1`: the GI50 in the assay on HOP-18, in the assay on KM-20L2, with DMS-273, in the assay on LXFL 529, in the assay with SNB-78 and in the assay on XF498 was > 100 µM (inactive) in each case. Moreover, the GI50 in the assay on DLD-1 and in the assay with DMS-114 was > 100 µM (inactive) in each case.

Regarding `CCOc1ccc(NC(=O)/C(Cc2nc3ccccc3nc2O)=N\O)cc1`, the GI50 with KM-20L2, in the assay with DMS-273, with LXFL 529, in the assay on SNB-78, in the assay with DLD-1 and with DMS-114 was > 100 µM (inactive) in each case.

Take `COC(=O)c1ccc(OCc2ccc3oc(=O)c(-c4ccccc4)nc3c2)cc1`: the GI50 in the assay with HOP-18 was > 100 µM (inactive); in the assay on DMS-273, > 100 µM (inactive); in the assay with SNB-78, > 100 µM (inactive); in the assay with XF498 it was 84.3 µM (inactive); in the assay on DLD-1, 15.2 µM (inactive); with DMS-114, > 100 µM (inactive).

In the case of `COc1ccc(-c2cc(-c3ccccc3)c(C#N)c(=O)[nH]2)cc1`, the GI50 with HOP-18, in the assay on KM-20L2, with DMS-273, in the assay on LXFL 529, in the assay on SNB-78 and with DLD-1 was > 100 µM (inactive) in each case. The GI50 in the assay on RXF 631 and with DMS-114 was > 100 µM (inactive) each time.

For `CCN(CC)CC(C(=O)Nc1c(C)cccc1C)/C(C)=N\NC(=O)C[N+](C)(C)C` (configuration not stated), the GI50 in the assay with KM-20L2, in the assay with DMS-273, in the assay on LXFL 529, with SNB-78, in the assay on XF498 and in the assay on DLD-1 was > 100 µM (inactive) in each case. Further, the GI50 in the assay on DMS-114 is > 100 µM (inactive).

As for `CC(C)C(Nc1c2ccccc2[n+]([O-])c2ccccc12)C(=O)O` (configuration not stated), the GI50 is 19.4 µM (inactive) in the assay on HOP-18; > 100 µM (inactive) in the assay with KM-20L2; 61.9 µM (inactive) in the assay on DMS-273; 32.4 µM (inactive) in the assay on LXFL 529; > 100 µM (inactive) in the assay on SNB-78; 37.7 µM (inactive) with DLD-1. For the same compound, the GI50 with RXF 631 is > 100 µM (inactive); with DMS-114, 36.2 µM (inactive).

Values taken from ChEMBL document CHEMBL1201862, “PubChem BioAssay data set” (2004).
